The values below come from patent publication US9040673B2, “Synthesis and identification of novel RSK-specific inhibitors” (University of Virginia Patent Foundation, priority 2009, dated 2015).

Series [1] has as its system MCF-7 cells. Briefly: MCF-7 cell proliferation (CellTiter-Glo cell viability). The format is cell-based, human. As to conditions: for IC50: 48 hours of treatment, read-out: concentration inhibiting proliferation of MCF-7 cells by 50%; for inhibition of MCF-7 cell growth: 50 uM.
Series [2] deals with MCF-10A cells. Briefly: MCF-10A cell proliferation. The format is cell-based, human. As to the method: The cell number was measured after 48 h of treatment. Values given are the fold proliferation as a percentage of that observed with vehicle-treated cells. Points, mean (n=2 in quadruplicate); bars=SD.
FIGS. 8A-8D SL0101-1 inhibits the proliferation of cancer cells but not normal cells. […] Cell viability was measured at indicated time points. Proliferation assays were conducted using CellTiter-Glo Luminescent Cell Viability Assay (Promega), performed 44 hrs after treatment for FIGS. 8A &B and at indicated points for FIG. 8C. The data are expressed relative to time 0.
(§1) Cell Culture. For proliferation studies cells were seeded at 2500 to 5000 cells per well in 96 well tissue culture plates in the appropriate medium as described by American Type Culture Collection. After 24 hr, the medium was replaced with medium containing compound or vehicle as indicated. Cell viability was measured at indicated time points using CellTiter-Glo™ assay reagent (Promega) according to manufacturer's protocol. For in vivo inhibition studies, cells were seeded at 2.5×10^5 cells/well in 12 well cell culture clusters. After 24 hr, the cells were serum starved for 24 hr then incubated with compound or vehicle for 3 hr prior to a 30 min PDB stimulation. Cells were lysed as previously described (J. Biol. Chem. 273, 13317-13323 (1998)). The lysates were normalized for total protein, electrophoresed and immunoblotted. For cell imaging, Ha-Ras-transformed NIH/3T3 cells were seeded on LABTEK II chamber slides (Nalge) at a density of 1×10^4 cells/well. After 24 hr, fresh medium was added the indicated compounds or vehicle. Images were taken 48 hr after treatment at a magnification of 20×.

Series [3] concerns the target RSK2 (Homo sapiens, UniProt P51812).
The subject of series [4] is CaLu-1 cells. Briefly: Calu-1 wound migration after siRNA transfection. The format is cell-based, human. The conditions noted are these: wound 48 hours after, 19 hr. As for the experimental part: Calu-1 cells were transiently transfected in suspension with either control siRNA, RSK1-specific siRNA, RSK2-specific siRNA or both RSK-1 and RSK2-specific siRNA. […] After four hours, the transfection medium was removed and the cells were plated in […] tissue-culture clusters. Forty-eight hours after transfection, scratches were made in the monolayer of cells using sterile, disposable micropipette tips. Images were captured-immediately following the wounding, and 19 hours after wounding. […] By 19 hr, the cells transfected with control siRNA have migrated into the wound. […] Thus, RSK activity is required for Calu-1 migration. More particularly, the ability of the entire monolayer to respond to the wound is depressed in the SL0101-treated cells as well as the siRNA transfected.

Series [5] has as its system HUVEC cells. Briefly: VEGF-induced capillary network formation in HUVEC cells. In kind it is cell-based, human. The conditions noted are these: 20 μM, 10 ng/ml VEGF, 20 hours. As to the method: Interfering with tube formation is a characteristic common to anti-angiogenic treatments. HUVEC cells were seeded at a density of 1×10^5 cells per well in 24-well culture dishes coated in growth factor-reduced Matrigel (BD Biosciences). […] The cells were incubated at 37° C. for 20 hours. Images of the cells were captured for analysis of the capillary-like network.

Series [6] relates to p140, a RSK substrate. Briefly: PDB-induced p140 phosphorylation in MCF-7 cells (immunoblot). In kind it is cell-based, human. The conditions noted are these: 50 μM, 3 hr pre-incubation, 500 nM PDB 30 min. As for the experimental part:
To determine whether SL0101-1 inhibits RSK in intact cells, phosphorylation of p140, a RSK substrate of unknown function, was examined in a human breast cancer cell line, MCF-7. MCF-7 and MCF-10A cells were pre-incubated with vehicle, 50 μM U0126 or the indicated concentration of SL0101-1 for 3 hr (FIG. 8D). Cells were treated with 500 nM PDB for 30 min prior to lysis. Protein concentration of lysates was measured and lysates were electrophoresed, transferred and immunoblotted. […] Pre-incubation of cells with 100 μM SL0101-1 abrogates phorbol dibutyrate (PDB)-induced p140 phosphorylation as does 50 μM U0126, a MEK inhibitor.
as §1, with “The lysates were normalized for total protein, electrophoresed and immunoblotted. For cell imaging, Ha-Ras-transformed NIH/3T3 cells were seeded on LABTEK II chamber slides (Nalge) at a density of 1×10^4 cells/well. After 24 hr, fresh medium was added the indicated compounds or vehicle. Images were taken 48 hr after treatment at a magnification of 20×.” left out

The mark [7] stands for this setting: indicated concentration, 48 h of treatment.

Read-outs that look alike come from different tables or passages of the source.

Sequence of RSK2 (P51812 1-397 limits assumed): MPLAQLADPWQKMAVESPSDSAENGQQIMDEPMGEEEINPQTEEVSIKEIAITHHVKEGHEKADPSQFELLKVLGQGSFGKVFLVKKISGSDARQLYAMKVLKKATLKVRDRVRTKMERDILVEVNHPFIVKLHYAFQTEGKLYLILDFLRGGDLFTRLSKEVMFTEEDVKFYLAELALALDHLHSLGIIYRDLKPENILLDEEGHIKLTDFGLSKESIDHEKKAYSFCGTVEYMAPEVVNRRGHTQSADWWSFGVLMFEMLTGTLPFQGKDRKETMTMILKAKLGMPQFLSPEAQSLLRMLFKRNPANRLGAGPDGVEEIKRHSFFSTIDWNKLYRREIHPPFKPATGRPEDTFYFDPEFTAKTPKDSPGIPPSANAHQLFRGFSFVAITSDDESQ

With `CCCC1OC(Oc2c(-c3ccc(O)cc3)oc3cc(O)cc(O)c3c2=O)C(O)C(OC(C)=O)C1OC(C)=O` [compound 16, Kaempferol-6″ethyl-L-rhamnoside-3″,4″-diacetate], the IC50 in series [1] (Homo sapiens, MCF7) was about 30 µM. Also, the “proliferation of MCF-7 cells” value in series [1] (setting [7]) is “inhibit proliferation”.
On to `CC(=O)O[C@@H]1[C@@H](OC(C)=O)[C@H](C)O[C@@H](Oc2c(-c3ccc(O)cc3)oc3cc(O)cc(O)c3c2=O)[C@@H]1OC(C)=O` [3Ac-SL0101, kaempferol 3-O-(2″,3″,4″-tri-O-acetyl-α-L-rhamnopyranoside)], for which, in series [1] (setting [7]), the “proliferation of MCF-7 cells” value is “selectively inhibits MCF-7 breast cancer cell proliferation”. Also, the “proliferation of MCF-10A (nontransformed) cells” value in series [2] (setting [7]) was “not nontransformed breast cell proliferation”.
As for `CC(=O)OC1C(C)OC(Oc2c(-c3ccc(O)cc3)oc3cc(O)cc(O)c3c2=O)C(O)C1O` [4″-mono-O-acetyl-SL0101, kaempferol 3-O-(4″-mono-O-acetyl-α-L-rhamnopyranoside)], in series [1], the “inhibition of MCF-7 cell growth” value is listed as “did not inhibit MCF-7 cell proliferation”. Also, the IC50 in series [3] is about 0.14 µM.
Take “RSK2-specific siRNA: custom oligonucleotide to Rsk2 mRNA, AACCUAUGGGAGAGGAGGAGA; SEQ ID NO: 2 (listed as RNA, chemistry not given here; listed as Homo sapiens)”: in series [4], the “migration of Calu-1 cells into wound” value is recorded as “reduced ability to migrate into the wound”.
`CC(=O)OC1C(C)CC(Oc2c(-c3ccc(O)cc3)oc3cc(O)cc(O)c3c2=O)C(O)C1O` [compound 12, Kaempferol L-carbarhamnoside 4″-acetate]: the “proliferation of MCF-7 cells” value in series [1] (setting [7]) was “inhibit proliferation”.
For the molecule `CC(C)c1cc(/C=C(\C#N)C(=O)NCCCc2ccccc2)cc(C(C)C)c1O` [SU1498], the capillary-like network formation entry in series [5] is on record as “rounded nodes with few tube-like projections”.
In the case of `CC(=O)OC1C(C)CC(Oc2c(-c3ccc(O)cc3)oc3cc(O)cc(O)c3c2=O)C(OC(C)=O)C1O` [compound 13, Kaempferol L-carbarhamnoside 2″,4″-diacetate], the IC50 in series [1] was about 30 µM. In series [1] (setting [7]), the “proliferation of MCF-7 cells” value is listed as “inhibit proliferation”.
As to `CC(=O)OC1C(C)OC(Oc2c(-c3ccc(O)cc3)oc3cc(O)cc(O)c3c2=O)C(OC(C)=O)C1O` [2″,4″-di-O-acetyl-SL0101, kaempferol 3-O-(2″,4″-di-O-acetyl-α-L-rhamnopyranoside)], the “inhibition of MCF-7 cell growth” value in series [1] is on record as “similarly effective at inhibiting MCF-7 cell growth”. This molecule also returned an IC50 in series [3] of about 0.26 µM.
With `N#CC(=C(/N)Sc1ccccc1N)/C(C#N)=C(\N)Sc1ccccc1N` [U0126], in series [1] (50 μM (FIG. 8A)), the “proliferation of MCF-7 cells” value was “halted proliferation”. Moreover, the “PDB-induced p140 phosphorylation” value in series [6] is given as “abrogates”. In series [2] (50 μM (FIG. 8A)), the “proliferation of MCF-10A cells” value is recorded as “halted proliferation”.
As to `Cn1cc(C2=C(c3cn(CCCSC(=N)N)c4ccccc34)C(=O)NC2=O)c2ccccc21` [Ro 318220], the “proliferation of MCF-7 cells” value in series [1] (500 nM) is “attenuated proliferation”. In addition, in series [2] (500 nM), the “proliferation of MCF-10A cells” value is listed as “attenuated proliferation”.
Consider “RSK1-specific siRNA: custom oligonucleotide to Rsk1 mRNA, AAGAAGCUGGACUUCAGCCGU; SEQ ID NO: 1 (listed as RNA, chemistry not given here; listed as Homo sapiens)”, for which the “migration of Calu-1 cells into wound” value in series [4] was “reduced ability to migrate into the wound”.
On to `CC(=O)OC1C(C)CC(Oc2c(-c3ccc(O)cc3)oc3cc(O)cc(O)c3c2=O)C(O)C1OC(C)=O` [compound 14, Kaempferol L-carbarhamnoside 3″,4″-diacetate], for which the IC50 in series [1] (Homo sapiens, MCF7) is about 30 µM. The “proliferation of MCF-7 cells” value in series [1] (setting [7]) is recorded as “inhibit proliferation”.
Regarding `O=c1c(O)c(-c2ccc(O)cc2)oc2cc(O)cc(O)c12` [kaempferol], the “growth of MCF-7 cells” value in series [1] (concentration not given) was “slows growth”. Moreover, the “growth of MCF-10A cells” value in series [2] (concentration not given) is given as “slows growth”.
